Assay results from the supplement of paper PMC8633005.

Legend:
Assay in all cases: drug sensitivity score (DSS) (DSS (unitless, 0-50 scale)); higher = more sensitive (stronger viability inhibition); extreme values may be limits of the assay
Conditions in all cases: 72 h; culture: 2D
FM-MEL-3 = system: FM-MEL-3
Outline: (§1)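 A 527-compound oncology library was screened in 384-well plates against melanoma cell lines and patient-derived melanoma cultures grown in 2D, the cultures at 1000–1500 cells per well. Each compound, in DMSO or water, was applied at five concentrations over a 10,000-fold range and incubated for 72 h at 37 °C before CellTiter-Glo luminescence readout of viability. A drug sensitivity score, a modified area-under-curve measure, was calculated from curves fitted in the in-house Breeze software.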

FM-MEL-2 = system: FM-MEL-2
Outline: as §1

SK-MEL-28 = system: SK-MEL-28
Outline: as §1

WM852 = system: WM852
Outline: as §1

Bowes = system: Bowes
Outline: as §1

SK-MEL-2 = system: SK-MEL-2
Outline: as §1

FM-MEL-6 = system: FM-MEL-6
Outline: as §1

WM165 = system: WM165
Outline: as §1

| SMILES | drug sensitivity score (FM-MEL-3) | drug sensitivity score (FM-MEL-2) | drug sensitivity score (SK-MEL-28) | drug sensitivity score (WM852) | drug sensitivity score (Bowes) | drug sensitivity score (SK-MEL-2) | drug sensitivity score (FM-MEL-6) | drug sensitivity score (WM165) |
| --- | --- | --- | --- | --- | --- | --- | --- | --- |
| NC(=S)N/N=C/c1ncccc1N [Triapine] | 0.6 | 0.4 | 2.5 | 0 | 1.9 | 0 | 3.2 | 5.3 |
| O=c1[nH]c(=O)n([C@H]2C[C@H](O)[C@@H](CO)O2)cc1C(F)(F)F [Trifluridine] | 0.1 | 0 | 2.7 | 0 | 0 | 0 | 0.8 | 3.5 |
| O=C(CCCCCCC(=O)Nc1ccc([C@H]2O[C@@H](CSc3nc(-c4ccccc4)c(-c4ccccc4)o3)C[C@@H](c3ccc(CO)cc3)O2)cc1)NO [Tubacin] | 0 | 0.9 | 0 | 3.9 | 4.9 | 0.8 | 0.2 | 4.7 |
| CN1CCc2c(c3ccccc3n2Cc2ccc(C(=O)NO)cc2)C1 [Tubastatin A] | 0.6 | 0.6 | 1.3 | 0 | 2 | 1 | 0 | 2.2 |
| Cc1cc(Nc2ncnc3ccc(NC4=NC(C)(C)CO4)cc23)ccc1Oc1ccn2ncnc2c1 [Tucatinib] | 0 | 0.4 | 0 | 0 | 0 | 0 | 0 | 0 |
| Nc1cc(F)ccc1NC(=O)c1ccc(CNC(=O)/C=C/c2cccnc2)cc1 [Tucidinostat] | 7.7 | 5.1 | 5.6 | 0 | 1.9 | 5 | 7.2 | 7.8 |
| CN[C@@H]1C[C@H]2O[C@@](C)([C@@H]1OC)n1c3ccccc3c3c4c(c5c6ccccc6n2c5c31)C(=O)N[C@H]4O [UCN-01] | 24.7 | 13.5 | 13.4 | 19.9 | 17.5 | 16.2 | 14.5 | 23.5 |
| COC(=O)c1ccc2c(c1)[nH]c1ncnc(NCCCN3CCCCC3)c12 [UM729] | 2.5 | 1 | 0.6 | 0 | 0 | 0 | 0 | 0 |
| COc1cc2c(NC3CCN(C(C)C)CC3)nc(C3CCCCC3)nc2cc1OCCCN1CCCC1 [UNC0638] | 4.4 | 6.9 | 5.8 | 5.9 | 6.6 | 5.9 | 2.8 | 5.8 |
| COc1cc2c(NC3CCN(C(C)C)CC3)nc(N3CCC(F)(F)CC3)nc2cc1OCCCN1CCCC1 [UNC0642] | 0.7 | 4.5 | 2 | 5.1 | 4 | 4.1 | 2.5 | 4.5 |
| O=C(c1ccc(C(=O)N2CCC(N3CCCC3)CC2)c(Nc2ccccc2)c1)N1CCC(N2CCCC2)CC1 [UNC1215] | 0 | 0 | 0 | 0 | 0 | 0 | 0 | 0 |
| CCCCNc1ncc(C(=O)NCc2ccc(-n3ccnc3)cc2)c(NC2CCC(O)CC2)n1 (stereo not given) [UNC2881] | 0 | 2.2 | 0 | 0 | 0 | 0 | 0 | 0 |
| NC(=O)c1cccc(-c2cccc(OC(=O)NC3CCCCC3)c2)c1 [URB597] | 0 | 0 | 0 | 0 | 0 | 0 | 0 | 0 |
| CC[C@@H]1CN(C(=O)NCC(F)(F)F)C[C@@H]1c1cnc2cnc3[nH]ccc3n12 [Upadacitinib] | 3.1 | 3.6 | 0.3 | 2.1 | 0 | 0 | 3.6 | 0 |
| Cn1ncc(Cl)c1-c1cc(C(=O)N[C@H](CN)Cc2ccc(F)c(F)c2)oc1Cl [Uprosertib] | 0 | 1.2 | 0.5 | 0 | 0 | 0 | 0 | 1.1 |
| CS(=O)(=O)c1ccc(-c2cnc(N)c(C(=O)Nc3ccccc3)n2)cc1 [VE-821] | 1.6 | 0 | 0 | 2.6 | 3.1 | 0 | 0 | 0 |
| O=C(O)CC1CC(c2ccccc2)=NO1 (stereo not given) [VGX-1027] | 0 | 0 | 0 | 0 | 0 | 0 | 0 | 0 |
| C=CC(=O)N1CC/C(=C\c2ccc(F)c([N+](=O)[O-])c2)C(=O)/C(=C/c2ccc(F)c([N+](=O)[O-])c2)C1 [VLX1570] | 18.6 | 7.8 | 15.8 | 18.8 | 23.8 | 14.9 | 2.4 | 24 |
| CNC(=O)c1ccccc1Nc1cc(Nc2ccc(N3CCOCC3)cc2OC)ncc1C(F)(F)F [VS-4718] | 12.5 | 9.2 | 4.5 | 6.7 | 3 | 6.3 | 7.2 | 7.8 |
| CCCC(CCC)C(=O)O [Valproic acid] | 0.3 | 0.2 | 0 | 0 | 0 | 0 | 0 | 0 |

| SMILES | drug sensitivity score (FM-MEL-3) | drug sensitivity score (FM-MEL-2) | drug sensitivity score (SK-MEL-28) | drug sensitivity score (WM852) | drug sensitivity score (Bowes) | drug sensitivity score (SK-MEL-2) | drug sensitivity score (FM-MEL-6) | drug sensitivity score (WM165) |
| --- | --- | --- | --- | --- | --- | --- | --- | --- |
| CCCCC(=O)OCC(=O)[C@]1(O)Cc2c(O)c3c(c(O)c2[C@@H](O[C@H]2C[C@H](NC(=O)C(F)(F)F)[C@H](O)[C@H](C)O2)C1)C(=O)c1c(OC)cccc1C3=O [Valrubicin] | 7.2 | 6.8 | 8.3 | 5.1 | 6.4 | 8.5 | 9.2 | 21.5 |
| COc1cc2/c(=N/c3ccc(Br)cc3F)nc[nH]c2cc1OCC1CCN(C)CC1 [Vandetanib] | 0 | 0 | 0.4 | 0 | 1.3 | 0 | 0.2 | 0 |
| CCc1c(C(=O)C(N)=O)c2c(OCC(=O)O)cccc2n1Cc1ccccc1 [Varespladib] | 0 | 0 | 0 | 0 | 0 | 0 | 0 | 0 |
| C[C@@H]1COC(Nc2ccc3ncnc(Nc4ccc(OCc5nccs5)c(Cl)c4)c3c2)=N1 [Varlitinib] | 2.2 | 5.7 | 0.3 | 1.7 | 0 | 0 | 0 | 0 |
| Clc1ccc(Nc2nnc(Cc3ccncc3)c3ccccc23)cc1 [Vatalanib] | 0 | 0 | 0 | 0 | 0 | 0 | 0 | 0 |
| C[C@]1(c2nc3c(C(N)=O)cccc3[nH]2)CCCN1 [Veliparib] | 0.6 | 0.7 | 0.2 | 0 | 0 | 0 | 0 | 0.9 |
| CCCS(=O)(=O)Nc1ccc(F)c(C(=O)c2c[nH]c3ncc(-c4ccc(Cl)cc4)cc23)c1F [Vemurafenib] | 0 | 0 | 13.5 | 0 | 2.4 | 0 | 0 | 10.2 |
| CC1(C)CCC(CN2CCN(c3ccc(C(=O)NS(=O)(=O)c4ccc(NCC5CCOCC5)c([N+](=O)[O-])c4)c(Oc4cnc5[nH]ccc5c4)c3)CC2)=C(c2ccc(Cl)cc2)C1 [Venetoclax] | 3.6 | 0 | 0 | 0 | 0 | 0 | 0 | 0 |
| O=C(/C=C\n1cnc(-c2cc(C(F)(F)F)cc(C(F)(F)F)c2)n1)NNc1ccccn1 [Verdinexor] | 5.3 | 4.2 | 5 | 2 | 4.1 | 2.3 | 4 | 9.3 |
| CCCCOc1nc(N)c2c(n1)N(Cc1cccc(CN3CCCC3)c1)CC(=O)N2 [Vesatolimod] | 0 | 0 | 0 | 0 | 0 | 0 | 0.8 | 0 |
| COc1cccc(-c2ccc(NC(=O)C3=C(C(=O)O)CCC3)c(F)c2)c1 [Vidofludimus] | 0.3 | 0 | 0 | 0 | 0.4 | 0 | 0 | 1.3 |
| CC[C@]1(O)C[C@@H]2CN(CCc3c([nH]c4ccccc34)[C@@](C(=O)OC)(c3cc4c(cc3OC)N(C)[C@H]3[C@@](O)(C(=O)OC)[C@H](OC(C)=O)[C@]5(CC)C=CCN6CC[C@]43[C@@H]65)C2)C1 [Vinblastine] | 11.9 | 4.5 | 8.9 | 13.8 | 21.8 | 19.3 | 3.9 | 19.9 |
| CC[C@]1(O)C[C@H]2CN(CCc3c([nH]c4ccccc34)[C@@](C(=O)OC)(c3cc4c(cc3OC)N(C=O)[C@H]3[C@@](O)(C(=O)OC)[C@H](OC(C)=O)[C@]5(CC)C=CCN6CC[C@]43[C@@H]65)C2)C1 [Vincristine] | 12.6 | 4.5 | 10.1 | 16.5 | 18.7 | 18.5 | 7.6 | 20.2 |
| CC[C@]12C=CCN3CC[C@@]4(c5cc([C@@]6(C(=O)OC)C[C@@H]7C[C@@H](C(C)(F)F)CN(Cc8c6[nH]c6ccccc86)C7)c(OC)cc5N(C)[C@H]4[C@@](O)(C(=O)OC)[C@@H]1OC(C)=O)[C@@H]32 [Vinflunine] | 3.2 | 1 | 3.5 | 3.5 | 3.6 | 2.7 | 3.8 | 4.6 |
| CCC1=C[C@@H]2CN(C1)Cc1c([nH]c3ccccc13)[C@@](C(=O)OC)(c1cc3c(cc1OC)N(C)[C@H]1[C@@](O)(C(=O)OC)[C@H](OC(C)=O)[C@]4(CC)C=CCN5CC[C@]31[C@@H]54)C2 [Vinorelbine] | 12.5 | 7.7 | 11 | 23.1 | 31.6 | 25.6 | 23.3 | 28.8 |
| CS(=O)(=O)c1ccc(C(=O)Nc2ccc(Cl)c(-c3ccccn3)c2)c(Cl)c1 [Vismodegib] | 0 | 0 | 0 | 0 | 0 | 0 | 0 | 0 |
| CNC(=O)c1cccc(-c2ccc3c(N4CCOC[C@@H]4C)nc(N4CCOC[C@@H]4C)nc3n2)c1 [Vistusertib] | 11.6 | 11 | 12.1 | 8.5 | 14 | 8.8 | 12.6 | 12.5 |
| CC[C@@H]1C(=O)N(C)c2cnc(Nc3ccc(C(=O)N[C@H]4CC[C@H](N5CCN(CC6CC6)CC5)CC4)cc3OC)nc2N1C(C)C [Volasertib] | 6.5 | 2.6 | 3.1 | 14.9 | 17.5 | 8.1 | 3.7 | 13.3 |
| O=C(CCCCCCC(=O)Nc1ccccc1)NO [Vorinostat] | 9.2 | 5.6 | 7.9 | 4.4 | 0.7 | 6.1 | 8.4 | 9.1 |
| Oc1nc(-c2ccc(C(F)(F)F)cc2)nc2c1CSCC2 [XAV-939] | 0 | 0 | 0 | 0 | 0 | 0 | 0 | 0 |
